Test results: patent US20240327444A1, “Method for Purifying Nucleotides, Device for Purifying Nucleotides, Hy-Drophobic Reagent, and Hydrophobic Substrate” (Japan Science and Technology Agency, priority 2021, published 2024)
Entries after “also recorded” stand apart in the source; their conditions may differ.

Key:
Assay type in all cases: cell-based
HeLa cells [1] = assay: Translation activity of NanoLuc luciferase mRNA (capped with cap analog, reverse-phase HPLC purified) lipofected into HeLa cells (FIG. 30, 31)
Protocol: In (A) of the figure, a cap analog compound was added, a NanoLuc luciferase mRNA (650-base-long) was transcriptionally synthesized using T7 RNA polymerase, and the transcription reaction was analyzed by denaturing polyacrylamide gel (5%, containing 7.5 M urea as a denaturant) electrophoresis. The composition of the transcription reaction liquid and the reaction conditions are shown below.
15 ng/μL dsDNA transcription template (PCR product of 676-bp containing T7 promoter sequence 5′TAATACGACTCACTATAG3′-(SEQ ID NO: 1) and containing a NanoLuc luciferase gene coding region derived from a pNL1.1 TK vector (Promega)), 2 mM ATP, 2 mM UTP, 2 mM CTP, 2 mM GTP or [0.5 mM GTP+2 mM Cap Analog], 40 mM Tris-HCl (pH 8.0), 8 mM MgCl2, 2 mM spermidine, 5 mM DTT, 10 units/μL T7 RNA polymerase (Takara Bio Inc.).
FIG. 30 is a diagram showing the evaluation of the translation activity of a NanoLuc luciferase mRNA after reverse-phase HPLC isolation and purification. The activity was indicated with the expression level of the mRNA prepared without addition of the cap analog being 1.
FIG. 31 is a diagram showing the evaluation of the translation activity of a NanoLuc luciferase mRNA after reverse-phase HPLC isolation and purification. The activity was indicated with the expression level of the mRNA prepared without addition of the cap analog being 1. […]

JAWS II cells = assay: Translation activity of Luc2 mRNA transcriptionally synthesized using a cap analog, JAWS II cells (FIG. 38); details: lipofection, after 24 hours, versus Tri_1 (CleanCap Reagent AG structure)
Protocol: (§1) An RNA was transcriptionally synthesized with T7 RNA polymerase using a double-stranded DNA as a template. The double-stranded DNA of the template was obtained by amplifying pSP73-a-luc2 (described at the end of the experimental section) encoding the Luc2 gene by a PCR reaction using KOD-Plus-Neo (TOYOBO), Fw primer (cgcgttggccgattcatt: SEQ ID NO: 3), Rev primer ([…]: SEQ ID NO: 4) (1.0 ng/μL DNA vector, 1×KOD-Plus-Neo buffer, 0.2 mM dNTPs, 0.3 μM primers, 1.5 mM MgSO4, 0.02 units/μL polymerase). […]
(§2) Deprotection by photoirradiation: The RNA solution was added to a transparent 96-multiwell plate, and irradiated with 365 nm light at a quantity of light of 4 mW/cm^2 for 15 minutes using a MAX-305 light source device (Asahi Spectra Co., Ltd.). […]
FIG. 38 is a diagram showing the result of evaluation of translation activity in JAWS II cells of an RNA transcriptionally synthesized using a cap analog. […] After 24 hours, the cells were lysed and the luminescence of firefly luciferase was measured. […]
Evaluation of intracellular translation activity (JAWS II cells): JAWS II cells (ATCC) were cultivated (37° C., 5% CO2) in Minimum Essential Medium α(MEM α; Thermo Fisher SCIENTIFIC) with addition of 10% fetal bovine serum (FBS; Invitrogen) and GM-CSF (5 ng/mL). […] Luminescence was measured using ONE-Glo (registered trademark) luciferase assay (registered trademark) (Promega).

[2] = test system: NF-κB reporter (Luc)-HEK 293 cells; assay: Evaluation of intracellular immune response, NF-κB reporter luciferase assay (FIG. 43, 45); details: FIG. 45; HEK 293 NF-kB cells, 50 ng and 100 ng mRNA, 24 hours
Protocol: NF-κB reporter (Luc)-HEK 293 cells (BPS Bioscience Inc.) were cultivated (37° C., 5% CO2) in a Dulbecco's modified Eagle's medium (DMEM; WAKO) with addition of 10% fetal bovine serum (FBS; Invitrogen), 100 μg/ml of Hygromycin B. The day before transfection, NF-κB reporter (Luc)-HEK 293 cells were seeded in a 48-well plate (7.5×10^4 cells/well). The next day, the medium was removed and replaced with 225 μL/well Opti-MEM (registered trademark) (Thermo Fisher SCIENTIFIC). 0.375 μL Lipofectamine (registered trademark) Messenger MAX (registered trademark) and 12.5 ng mRNA (DiPure) were diluted in 25 μL Opti-MEM (registered trademark) and introduced into cells. After incubation at 37° C. for 5 hours, 50 μL/well 1× Cell Lysis Buffer (Promega) was added to lyse the cells. Luminescence was measured using ONE-Glo (registered trademark) luciferase assay (registered trademark) (Promega). The protein amount was quantified using Pierce (registered trademark) BCA Protein Assay Kit (Thermo Fisher SCIENTIFIC), and the luminescence value was corrected by the number of cells.
NF-κB reporter (Luc)-HEK 293 cells (BPS Bioscience Inc.) were cultivated (37° C., 5% CO2) in a Dulbecco's modified Eagle's medium (DMEM; WAKO) with addition of 10% fetal bovine serum (FBS; Invitrogen), 100 μg/ml of Hygromycin B. The day before transfection, NF-κB reporter (Luc)-HEK 293 cells were seeded in a 48-well plate (1.0×10^5 cells/well). The next day, the medium was removed and replaced with 240 μL/well Opti-MEM (registered trademark) (Thermo Fisher SCIENTIFIC). 0.15 μL Lipofectamine (registered trademark) Messenger MAX (registered trademark) and 100 ng mRNA were diluted in 10 μL Opti-MEM (registered trademark) and introduced into cells. After incubation at 37° C. for 24 hours, 50 μL/well 1× Cell Lysis Buffer (Promega) was added to lyse the cells. Luminescence was measured using ONE-Glo (registered trademark) luciferase assay (registered trademark) (Promega). The protein amount was quantified using Pierce (registered trademark) BCA Protein Assay Kit (Thermo Fisher SCIENTIFIC), and the luminescence value was corrected by the number of cells.

HeLa cells [3] = assay: Translation activity of Luc2 mRNA transcriptionally synthesized using a cap analog, HeLa cells (FIG. 37); details: lipofection, after 24 hours, versus Tri_1 (CleanCap Reagent AG structure)
Protocol: as §1, §2
FIG. 37 is a diagram showing the result of evaluation of translation activity in a HeLa cell of RNAs transcriptionally synthesized using a cap analog. […] After 24 hours, the cells were lysed and the luminescence of firefly luciferase was measured. […]
HeLa cells (RIKEN Cell Bank) were cultivated (37° C., 5% CO2) in Dulbecco's modified Eagle's medium (DMEM; WAKO) with addition of 10% fetal bovine serum (FBS; Invitrogen). […] Luminescence was measured using ONE-Glo (registered trademark) luciferase assay (registered trademark) (Promega).

## C[n+]1cn([C@@H]2O[C@H](COP(=O)(O)OP(=O)([O-])OP(=O)(O)OC[C@H]3O[C@@H](n4cnc5c(=O)[nH]c(N)nc54)C(O)[C@H]3O)[C@H](O)C2OCOC(c2ccccc2[N+](=O)[O-])C(C)(C)C)c2nc(N)nc(O)c21 (mixture of isomers) [Cap Analog_2, P1-{N^7-Methyl-2′-O-[2,2-dimethyl-(R/S)-1-(2-nitrophenyl)propyloxy]methylguanosin-5′-yl} P3-guanosin-5′-yl triphosphate]
HeLa cells [1]; FIG. 31, mRNA 5 ng/well, cultivated 23 hours
  translation activity compared with mRNA prepared using ARCA cap analog: higher translation activity compared to the RNA capped with ARCA

## P1-(N^2-tBu-nitrobenzyloxycarbonyl-N^7-methylguanosin-5′-yl) P3-guanosin-5′-yl triphosphate [Cap Analog_1]
HeLa cells [1]; FIG. 30, mRNA 20 ng/well, cultivated 7 hours, before and after photoirradiation/deprotection
  translation activity (amount of expressed NanoLuc luciferase; expression level of mRNA prepared without cap analog being 1): does not show high translation activity unless it is irradiated with light and deprotected; also recorded: can completely inhibit translation activity in the protected state

## COC1[C@@H](OP(=O)([O-])OC[C@H]2O[C@@H](n3cnc4c(=O)[nH]c(N)nc43)C(O)[C@H]2O)[C@@H](COP(=O)([O-])OP(=O)([O-])OP(=O)([O-])OC[C@H]2O[C@@H](n3c[n+](C)c4c([O-])nc(N)nc43)C(OCOC(c3ccccc3[N+](=O)[O-])C(C)(C)C)[C@H]2O)O[C@H]1n1cnc2c(N)ncnc21.[Na+].[Na+].[Na+].[Na+] (some centres unmarked) [TriPure_1, Nb-^m7GpppA(2′OCH3)pG]
JAWS II cells
  translation activity relative to Tri_1 (firefly luciferase luminescence): about 24 times
[2]
  intracellular immune response (NF-κB reporter luminescence): lower immune response than conventional mRNAs synthesized using ARCA
HeLa cells [3]
  translation activity relative to Tri_1 (firefly luciferase luminescence): about 2 times
